Measured values as given in US9888679B2, “Protection of progenitor cells and regulation of their differentiation” (Proteobioactives Pty Ltd, priority 2007, dated 2018).
Entries after “also recorded” stand apart in the source; their conditions may differ.

How the values were obtained:
Type in all cases: cell-based
Normal Human MSCs = assay: Freeze/thaw viability of MSCs cryopreserved with PPS, trypan blue cell counts
Method: FIG. 1. The Effects of Pentosan Polysulfate (PPS) on Normal Human MSCs Freeze/Thaw Viabilities. MSCs were rapidly thawed in a 37° C. water bath and washed twice with HHF (HBSS containing 5% (v/v) Foetal Calf Serum). The cells were subsequently seeded into multiple T-75 flasks at 8,000 cells/cm^2. The cells were grown until 70-80% confluent, trypsinised and cryopreserved at cell concentrations of 50×10^6/ml in Profreeze®/7.5% DMSO supplemented with PPS at the indicated concentrations. Ampoules were retrieved from liquid nitrogen storage and rapidly thawed, gently mixed and 10 ul samples removed at time=0, 30, 60, 90 and 120 minutes. To each cell sample, 290 ul of trypan blue was added and cell counts/viability testing performed.
Cells were harvested and resuspended in cold serum free culture medium at 5.0 to 20.0×10^6 cells/ml. An equal volume of chilled complete Profreeze®-CDM medium was added to the chilled cell suspension containing 0, 10, 20, 50 and 100 micrograms/mL of PPS. The resulting final DMSO concentration was 7.5%, PPS concentration was 0, 5, 10, 25 and 50 micrograms/mL and the final cell concentration was approximately 2.5 to 10×10^6 cells/ml. The cell mixture was aliquoted into cryopreservation ampoules (Nunc, Intermed, Denmark) and cryopreserved in a C156 Freezing Container (Thermo Scientific, Melbourne, 21 Australia) at −80° C. for a −1° C./minute controlled cooling rate. The ampoules were then transferred to liquid nitrogen storage (−196° C.).
Cyropreserved cells were rapidly thawed for a minute in a 37° C. water bath and transferred to a 10 mL polypropylene tube. Approximately 3 mL of appropriate media was added dropwise to the cells with constant mixing, and made up to a final volume of 10 mL. Cells were pelleted by centrifugation at 400×g, 4° C. for 5 minutes and the supernatant aspirated. To ensure removal of residual DMSO, cells were washed in medium and centrifuged as above. Cells were resuspended in final volume of 10 mL and seeded in a 75 cm^2 flask prior to incubation in a humidified incubator at 37° C. in the presence of 5% CO2.
Aliquots of single-cell suspensions obtained after thawing progenitor cells from the PPS containing cryopreserved vials were diluted in an equal volume of 0.4% (w/v) trypan blue in phosphate buffered saline (PBS). The cell counts were determined using a haemocytometer (Neubauer Improved, Assistant, Germany) and a light microscope (Olympus CKX41, Japan).

human progenitor cells [1] = assay: DNA synthesis (3H-Thymidine incorporation) in micromass cultures; settings: FIG. 5
Method: FIG. 5. A bar graph of the concentration dependent effects of Pentosan Polysulfate (PPS) on DNA synthesis by human progenitor cells, as determined by the incorporation of ^3H-Thymidine into macromolecular DNA, after 4 day micromass cultures. *=p<0.05; **=p<0.005 relative to controls.
Ten μl of progenitor cells (7×10^6 cells/ml) were seeded into each well of a 24-well culture plate. After incubation at 37° C. in moist 5% CO2/95% air for 2-3 hours, 900 μl of DMEM-High medium (+10% FBS) and indicated concentrations PPS dissolved in DMEM-High medium were added slowly to the wells. The final PPS concentration were 0, 0.1, 0.5, 1.0, 2.5, 5.0, 10.0, 20.0 μg/ml, respectively. Every PPS concentration was established in triplicate. The cultures were allowed to proceed for 3 days. On day 4, to each well of the 24-well plate was added 640 μl of DMEM-High (+10% FBS), 80 μl of 10×PPS solution and 80 μl of 10 μCi/ml ^3H-Thymidine solution to produce a final ^3H-Thymidine concentration of […] and final PPS concentrations as indicated. The cultures were then incubated in 37° C., 5% CO2 for a further 22 hours, the medium was removed and 200 μl of 1 mg/ml Collagenase solution [Collagenase buffer: 66.7 mM NaCl, 6.7 mM KCl, 4.8 mM CaCl2.2H2O, 10 mM HEPES (pH7.4)] was added to each well. […] The radioactivity of ^3H incorporated into the DNA of proliferating cells was measured by scintillation counting.

human progenitor cells [2] = assay: IL-4/IFN-gamma induced apoptosis, Annexin V staining
Method: FIG. 6. The Effects of Pentosan Polysulfate (PPS) on Human progenitor cells treated with apoptotic agents. Human progenitor cells were plated in serum-free media supplemented with PPS at the indicated concentrations. Progenitor cell apoptosis was induced by the addition of a combination of 30 ng/ml IL-4 plus 30,000 U/ml IFN-gamma. Following 5 days culture, cells were harvested by trypsinisation and viabilities assessed by Annexin V staining.
Human progenitor cells were plated in serum-free media supplemented with PPS at concentrations of 0, 1, 2, 5 and 10 micrograms/mL. Progenitor cell apoptosis was induced by the addition of a combination of 30 ng/ml IL-4 30,000 U/ml IFN gamma. Following 5 days culture, cells were harvested by trypsinisation and viabilities assessed by Annexin V staining as previously described (Kortesidis A, A Zannettino, S Isenmann, S Shi, T Lapidot and S Gronthos. (2005). Stromal-derived factor-1 promotes the growth, survival, and development of human bone marrow stromal stem cells. Blood 105:3793-3801).
The experiment was undertaken in a 96 well plate containing 50,000 progenitor cells/well.

Substance: pentosan polysulfate [PPS]
- cell viability after cryopreservation and thawing (Normal Human MSCs; 5 μg/ml PPS): beneficial effect on viability at 60 minutes
- cell viability after cryopreservation and thawing (Normal Human MSCs; 10 μg/ml PPS): beneficial effect at time point 0 and then at 60 and 90 minutes
- cell viability after cryopreservation and thawing (Normal Human MSCs; 25 μg/ml PPS, all time points instead of 30 minutes): either enhanced the viability or did not adversely affect the viability
- cell viability after cryopreservation and thawing (Normal Human MSCs; 50 μg/ml PPS, with the exception of 30 minutes): enhanced the viability of the progenitor cells at all time points
- cell viability after cryopreservation and thawing (Normal Human MSCs; Profreeze/7.5% DMSO with PPS 5-50 μg/ml, 0-120 min after thawing, FIG. 1): did not adversely affect cell viability; also recorded: did not have an adverse effect on the cryopreservation; also recorded: did not have an adverse effect and may enhance the cryopreservation of progenitor cells
- cell viability after cryopreservation and thawing (Normal Human MSCs; Profreeze/7.5% DMSO with PPS 5-50 μg/ml, 0-120 min after thawing, FIG. 1, listed as polysulfated polysaccharides): no detrimental effect on their viability
- cell division (3H-Thymidine incorporation into DNA) (human progenitor cells [1]; 1-5 micrograms/mL): Marked stimulation of cell division
- proliferation (3H-Thymidine incorporation into DNA) (human progenitor cells [1]; all PPS concentrations (0.1-20 μg/ml)): increased proliferation
- PPS concentration with best results on apoptosis (human progenitor cells [2]; FIG. 6): 10 µg/mL
- reduction in IFN-gamma/IL-4-induced apoptosis (Annexin V positive cells) (human progenitor cells [2]; PPS in excess 1 ug/ml, 5 days culture, FIG. 6): two-fold reduction
- cell apoptosis (human progenitor cells [2]; all concentrations of PPS (1, 2, 5, 10 micrograms/mL)): reduced
- reduction of apoptosis (human progenitor cells [2]; concentrations above 1 microgram/mL, incubated with IL-4 and IFN-gamma, FIG. 6): about 50%
